{"source": "paper PMC10006169", "about": "“A phase I trial of LXS196, a protein kinase C (PKC) inhibitor, for metastatic uveal melanoma” (British Journal of Cancer, 2023)", "system": "pPKC delta", "experiment": "pPKC delta in PBMCs", "type": "in vivo, human", "settings": "all dose levels", "from_the_text": "Fresh metastatic tumour biopsies were collected at baseline (prior to first dose) and on treatment at C1D15 to evaluate the modulation of PKC substrate proteins in tumours following exposure to LXS196 and to perform exploratory transcriptome and targeted DNA sequencing. Whole blood samples (peripheral blood mononuclear cells; PBMCs) were collected pre-dose on C1D1 and D15, and at various time points post-dose on C1D1, D2, D3, D15 and D16 to evaluate the modulation of PKC substrate proteins in a surrogate tissue. Owing to the exploratory nature of this phase I study, formal statistical tests were not planned to be performed. Data are presented using descriptive statistics and visualisations. Continuous variables are described with the mean and range. Categorical variables are described using counts and percentages. PFS is described using the Kaplan–Meier (KM) method."}
{"smiles": "CC1(N)CCN(c2cccnc2NC(=O)c2nc(-c3ncccc3C(F)(F)F)cnc2N)CC1", "note": "[LXS196]", "values": [{"measurement": "Time post-dose to reduction in pPKC delta in PBMCs", "value": "≤ 6", "unit": "h"}]}
